Measurements taken from ChEMBL document CHEMBL1201862, “PubChem BioAssay data set” (2004).
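A five-concentration, 48-hour dose response in 96-well plates underlies each endpoint, interpolated linearly between surrounding concentrations. Abbreviation: GI50, concentration required for 50% inhibition of growth.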 Active and inactive are the calls of the source. Rule as the data show it: active = GI50 up to about 1.1 µM and inactive = higher.

Assays:
Assay in all cases: DTP human tumour cell line panel, 48 h
786-0 = test system: 786-0
A549 = test system: A549
ACHN = test system: ACHN
BT-549 = test system: BT-549
CAKI-1 = test system: CAKI-1
CCRF-CEM = test system: CCRF-CEM
COLO 205 = test system: COLO 205
DU-145 = test system: DU-145
EKVX = test system: EKVX
HCC 2998 = test system: HCC 2998
HCT-116 = test system: HCT-116
HCT-15 = test system: HCT-15
HL-60 = test system: HL-60
HOP-62 = test system: HOP-62
HT-29 = test system: HT-29
Hs-578T = test system: Hs-578T
K562 = test system: K562
KM12 = test system: KM12
LOX IMVI = test system: LOX IMVI
M14 = test system: M14
MCF7 = test system: MCF7
MDA-MB-435 = test system: MDA-MB-435
MDA-N = test system: MDA-N
MOLT-4 = test system: MOLT-4
Malme-3M = test system: Malme-3M
NCI-H226 = test system: NCI-H226
NCI-H23 = test system: NCI-H23
NCI-H522 = test system: NCI-H522
NCI/ADR-RES = test system: NCI/ADR-RES
OVCAR-3 = test system: OVCAR-3
OVCAR-4 = test system: OVCAR-4
OVCAR-5 = test system: OVCAR-5
OVCAR-8 = test system: OVCAR-8
PC-3 = test system: PC-3
RPMI-8226 = test system: RPMI-8226
RXF 393 = test system: RXF 393
SF-268 = test system: SF-268
SF-295 = test system: SF-295
SF-539 = test system: SF-539
SK-MEL-28 = test system: SK-MEL-28
SK-MEL-2 = test system: SK-MEL-2
SK-MEL-5 = test system: SK-MEL-5
SK-OV-3 = test system: SK-OV-3
SN12C = test system: SN12C
SNB-19 = test system: SNB-19
SNB-75 = test system: SNB-75
SR = test system: SR
SW-620 = test system: SW-620
T47D = test system: T47D
TK-10 = test system: TK-10
U-251 = test system: U-251
UACC-257 = test system: UACC-257
UACC-62 = test system: UACC-62
UO-31 = test system: UO-31
A498 = test system: A498
IGROV-1 = test system: IGROV-1
MDA-MB-231 = test system: MDA-MB-231
HOP-92 = test system: HOP-92
NCI-H460 = test system: NCI-H460

Measured: GI50

O=S1(=O)OCCOS(=O)(=O)C1F
active: BT-549 0.0293 µM
> 100 µM: HCT-15
inactive: 786-0 > 100 µM | A549 > 100 µM | ACHN > 100 µM | CAKI-1 > 100 µM | CCRF-CEM > 100 µM | COLO 205 > 100 µM | DU-145 > 100 µM | EKVX > 100 µM | HCC 2998 > 100 µM | HCT-116 > 100 µM | HL-60 > 100 µM | HOP-62 > 100 µM | HT-29 > 100 µM | Hs-578T > 100 µM | K562 > 100 µM | KM12 > 100 µM | LOX IMVI > 100 µM | M14 > 100 µM | MCF7 > 100 µM | MDA-MB-435 > 100 µM | MDA-N > 100 µM | MOLT-4 > 100 µM | Malme-3M > 100 µM | NCI-H226 > 100 µM | NCI-H23 > 100 µM | NCI-H522 > 100 µM | NCI/ADR-RES > 100 µM | OVCAR-3 > 100 µM | OVCAR-4 > 100 µM | OVCAR-5 > 100 µM | OVCAR-8 > 100 µM | PC-3 > 100 µM | RPMI-8226 > 100 µM | RXF 393 > 100 µM | SF-268 > 100 µM | SF-295 > 100 µM | SF-539 43.6 µM | SK-MEL-28 > 100 µM | SK-MEL-2 > 100 µM | SK-MEL-5 > 100 µM | SK-OV-3 > 100 µM | SN12C > 100 µM | SNB-19 > 100 µM | SNB-75 > 100 µM | SR > 100 µM | SW-620 > 100 µM | T47D > 100 µM | TK-10 > 100 µM | U-251 > 100 µM | UACC-257 > 100 µM | UACC-62 > 100 µM | UO-31 > 100 µM

C=C(C(=O)O)C1CCC(CC/C=C(\C)CC/C=C(\C)CCC=C(C)C)CO1 (centres undefined)
inactive: 786-0 11 µM | A498 19.4 µM | A549 7.89 µM | ACHN 28.6 µM | BT-549 18 µM | CAKI-1 32.3 µM | CCRF-CEM 22.6 µM | COLO 205 11.2 µM | DU-145 17.5 µM | EKVX 13.3 µM | HCT-116 4.99 µM | HL-60 4.01 µM | HOP-62 23.1 µM | HT-29 11.7 µM | Hs-578T 12 µM | IGROV-1 18.5 µM | KM12 14.8 µM | LOX IMVI 12.2 µM | M14 11.1 µM | MCF7 5.97 µM | MDA-MB-231 42.7 µM | MDA-MB-435 18 µM | MDA-N 11 µM | Malme-3M 21.5 µM | NCI-H23 18.5 µM | NCI-H522 20.7 µM | NCI/ADR-RES 27.1 µM | OVCAR-4 27.4 µM | OVCAR-5 18 µM | OVCAR-8 18.8 µM | PC-3 24.8 µM | RXF 393 12.4 µM | SF-268 28.2 µM | SF-295 18.2 µM | SF-539 12.1 µM | SK-MEL-28 14.3 µM | SK-MEL-2 17.3 µM | SK-MEL-5 12.5 µM | SK-OV-3 82.2 µM | SN12C 14.2 µM | SNB-19 13.6 µM | SNB-75 > 100 µM | SW-620 15.7 µM | T47D 26.2 µM | TK-10 23 µM | U-251 20.1 µM | UACC-257 15.3 µM | UACC-62 40 µM | UO-31 12.5 µM
13 µM: HCT-15
active: NCI-H226 0.0723 µM

COc1cc(N(CCC#N)CCC#N)ccc1/C=N\NC(=O)c1ccc(C)cc1
inactive: 786-0 > 100 µM | A549 > 100 µM | ACHN > 100 µM | BT-549 > 100 µM | CAKI-1 > 100 µM | CCRF-CEM > 100 µM | COLO 205 > 100 µM | DU-145 > 100 µM | EKVX > 100 µM | HCT-116 > 100 µM | HL-60 > 100 µM | HOP-62 > 100 µM | HOP-92 > 100 µM | HT-29 > 100 µM | Hs-578T > 100 µM | IGROV-1 > 100 µM | K562 > 100 µM | KM12 > 100 µM | LOX IMVI > 100 µM | M14 > 100 µM | MDA-MB-231 18.2 µM | MDA-MB-435 > 100 µM | MDA-N > 100 µM | MOLT-4 > 100 µM | Malme-3M > 100 µM | NCI-H226 > 100 µM | NCI-H23 > 100 µM | NCI-H460 > 100 µM | NCI-H522 > 100 µM | NCI/ADR-RES > 100 µM | OVCAR-3 75.2 µM | OVCAR-4 > 100 µM | OVCAR-5 > 100 µM | OVCAR-8 > 100 µM | PC-3 17.3 µM | RXF 393 > 100 µM | SF-268 > 100 µM | SF-295 > 100 µM | SF-539 > 100 µM | SK-MEL-28 > 100 µM | SK-MEL-2 17.3 µM | SK-MEL-5 > 100 µM | SK-OV-3 > 100 µM | SN12C > 100 µM | SNB-19 > 100 µM | SNB-75 > 100 µM | SW-620 > 100 µM | T47D > 100 µM | TK-10 > 100 µM | U-251 16.4 µM | UACC-257 > 100 µM | UACC-62 > 100 µM
> 100 µM: HCT-15

O=C(C#Cc1ccccc1)N1CCCCC1
49.9 µM: HCT-15
inactive: 786-0 14.4 µM | A498 > 100 µM | A549 76.9 µM | ACHN 58.1 µM | BT-549 > 100 µM | CAKI-1 83.9 µM | CCRF-CEM 50.8 µM | COLO 205 > 100 µM | DU-145 55.8 µM | EKVX 63.2 µM | HCC 2998 84.7 µM | HCT-116 16.8 µM | HL-60 21.9 µM | HOP-62 > 100 µM | HOP-92 > 100 µM | HT-29 29 µM | Hs-578T > 100 µM | IGROV-1 65 µM | K562 73.6 µM | KM12 > 100 µM | LOX IMVI 48.9 µM | M14 84.1 µM | MCF7 44.4 µM | MDA-MB-231 72.3 µM | MDA-MB-435 63.5 µM | MDA-N 86.5 µM | MOLT-4 > 100 µM | Malme-3M 40 µM | NCI-H226 > 100 µM | NCI-H23 45.3 µM | NCI-H460 44.6 µM | NCI-H522 > 100 µM | OVCAR-3 81.7 µM | OVCAR-4 80 µM | OVCAR-5 > 100 µM | OVCAR-8 48.6 µM | PC-3 77.4 µM | RPMI-8226 62.5 µM | SF-268 90.2 µM | SF-295 > 100 µM | SF-539 > 100 µM | SK-MEL-28 > 100 µM | SK-MEL-2 > 100 µM | SK-MEL-5 56.4 µM | SK-OV-3 > 100 µM | SN12C > 100 µM | SNB-19 > 100 µM | SNB-75 > 100 µM | SR 80.4 µM | SW-620 97.9 µM | T47D 52.6 µM | TK-10 > 100 µM | U-251 84.1 µM | UACC-257 > 100 µM | UACC-62 > 100 µM

CC(C)=CCN1c2ccccc2NC(=O)CC1C (centres undefined)
> 100 µM: HCT-15
inactive: 786-0 > 100 µM | A498 83.8 µM | A549 > 100 µM | ACHN 71.1 µM | BT-549 22.7 µM | CAKI-1 > 100 µM | CCRF-CEM > 100 µM | COLO 205 > 100 µM | DU-145 > 100 µM | EKVX 51.3 µM | HCC 2998 > 100 µM | HL-60 61.2 µM | HOP-62 > 100 µM | HOP-92 38.7 µM | HT-29 > 100 µM | Hs-578T > 100 µM | IGROV-1 > 100 µM | K562 > 100 µM | KM12 > 100 µM | LOX IMVI > 100 µM | M14 > 100 µM | MCF7 > 100 µM | MDA-MB-231 > 100 µM | MDA-MB-435 > 100 µM | MOLT-4 > 100 µM | Malme-3M > 100 µM | NCI-H226 > 100 µM | NCI-H23 > 100 µM | NCI-H460 > 100 µM | NCI-H522 > 100 µM | NCI/ADR-RES 49.8 µM | OVCAR-3 70.6 µM | OVCAR-4 28.4 µM | OVCAR-5 > 100 µM | OVCAR-8 > 100 µM | PC-3 > 100 µM | RPMI-8226 > 100 µM | RXF 393 > 100 µM | SF-268 > 100 µM | SF-295 > 100 µM | SF-539 > 100 µM | SK-MEL-28 > 100 µM | SK-MEL-2 > 100 µM | SK-MEL-5 29.3 µM | SK-OV-3 > 100 µM | SN12C 33.3 µM | SNB-19 > 100 µM | SR 56.5 µM | SW-620 > 100 µM | T47D 84.7 µM | TK-10 55.8 µM | U-251 > 100 µM | UACC-257 28.8 µM | UO-31 83.4 µM
